Read-outs that look alike come from different tables or passages of the source.
Experiments:
Type in all cases: in vivo
[1] = test system: Colletotricum lagenarium; assay: Cucumber Anthracnose (COLLLA), foliar spray, percent disease control
Procedure: The activity of the compounds as effective fungicides was determined by applying the compounds to plants and observing control of fungal disease. The compounds were formulated at 200 ppm in 10 vol. % acetone plus 90 vol. % Triton X water (deionized water 99.99 wt %+0.01 wt % Triton X100), giving a “formulated test compound.” In a few cases, compounds were formulated at 75 or 8.3 ppm rather than 200 ppm in 10 vol. % acetone plus 90 vol. % Triton X water (deionized water 99.99 wt. %+0.01 wt. % Triton X100), giving a “formulated test compound.” Formulated test compounds were applied to plants using a turn table sprayer fitted with two opposing air atomization nozzles which delivered approximately 1500 L/ha of spray volume. All plants were inoculated with spores of the fungus the day after treatment, then incubated in an environment conducive to disease development. Disease severity was evaluated 4 to 15 days later, depending on the disease and the speed of disease development. The following experiments were performed in the laboratory to determine the fungicidal efficacy of the compounds of the invention. Cucumber Anthracnose (causal agent Colletotricum lagenarium; Bayer code COLLLA): Cucumber plants (variety Bush Champion) were grown from seed in a soil-less peat-based potting mixture (Metromix) until the first true leaf was 20-80% expanded. Each pot contained 1 seedling. These plants were sprayed until wet with the formulated test compound. On the following day, the leaves were inoculated with an aqueous spore suspension of Colletotricum lagenarium and the plants were kept in high humidity for one day to permit spores to germinate and infect the leaf. The plants were then transferred to a growth chamber until disease developed on untreated control plants. […] The effectiveness of the test compounds at controlling disease when sprayed on leaves was determined by assessing the severity of disease on treated plants, then converting the severity to percent control based on the level of disease on untreated, inoculated plants. Data are the level (in percent) at which the given disease was controlled when the given compound was applied to the foliage of the plants at 200 ppm. In a few cases (noted in the table) the compound was applied to the plants at 75 ppm or 8.3 ppm.

[2] = test system: Pseudoperonospora cubensis; assay: Cucumber Downy Mildew (PSPECU), foliar spray, percent disease control; details: read-out: PSPECU percent control
Procedure: The activity of the compounds as effective fungicides was determined by applying the compounds to plants and observing control of fungal disease. The compounds were formulated at 200 ppm in 10 vol. % acetone plus 90 vol. % Triton X water (deionized water 99.99 wt %+0.01 wt % Triton X100), giving a “formulated test compound.” In a few cases, compounds were formulated at 75 or 8.3 ppm rather than 200 ppm in 10 vol. % acetone plus 90 vol. % Triton X water (deionized water 99.99 wt. %+0.01 wt. % Triton X100), giving a “formulated test compound.” Formulated test compounds were applied to plants using a turn table sprayer fitted with two opposing air atomization nozzles which delivered approximately 1500 L/ha of spray volume. All plants were inoculated with spores of the fungus the day after treatment, then incubated in an environment conducive to disease development. Disease severity was evaluated 4 to 15 days later, depending on the disease and the speed of disease development. The following experiments were performed in the laboratory to determine the fungicidal efficacy of the compounds of the invention. Cucumber Downy Mildew (causal agent Pseudoperonospora cubensis; Bayer code […]): Cucumber plants (variety Bush Champion) were grown from seed in a soil-less peat-based potting mixture (Metromix) until the first true leaf was 20-80% expanded. Each pot contained 1 seedling. These plants were sprayed until wet with the formulated test compound. On the following day, the leaves were inoculated with an aqueous suspension of downy mildew sporangia and the plants were kept in high humidity for one day to permit sporangia to germinate and infect the leaf. The plants were then incubated in a growth chamber until disease developed on untreated control plants. […] The effectiveness of the test compounds at controlling disease when sprayed on leaves was determined by assessing the severity of disease on treated plants, then converting the severity to percent control based on the level of disease on untreated, inoculated plants. Data are the level (in percent) at which the given disease was controlled when the given compound was applied to the foliage of the plants at 200 ppm. In a few cases (noted in the table) the compound was applied to the plants at 75 ppm or 8.3 ppm.

[3] = test system: Cochliobolus sativus; assay: Spot Blotch of Wheat (COCHSA), foliar spray, percent disease control
[4] = Bipolaris sorokiniana, foliar; read-out: COCHSA percent control

| Compound | pest or weed control at 200 µg/mL ([1]; foliar spray) [%] | pest or weed control at 200 µg/mL ([2]; foliar spray) [%] | pest or weed control at 200 µg/mL ([3]; Bipolaris sorokiniana; foliar spray; read-out: COCHSA percent control) [%] | pest or weed control at 200 µg/mL ([1]; foliar) [%] | pest or weed control at 200 µg/mL ([2]; foliar) [%] | pest or weed control at 200 µg/mL [3, 4] [%] | pest or weed control at 200 µg/mL ([3]; Bipolaris sorokiniana, foliar, read-out: COCHSA percent control) [%] |
| --- | --- | --- | --- | --- | --- | --- | --- |
| CC(C)(C)OC(=O)N(CCc1ccc(O)cc1)c1ncnc2nccnc12 [Compound 217, [2-(4-Hydroxyphenyl)-ethyl]-pteridin-4-yl-carbamic acid tert-butyl Ester] | 0 to 49 | 50 to 79 | 50 to 79 | – | – | – | – |
| Fc1nc(F)c(F)c(Oc2ccc(CCNc3ncnc4nccnc34)cc2)c1F [Compound 94] | – | – | – | 50 to 79 | 50 to 79 | 0 to 49 | – |
| COc1cc(C(F)(F)F)cc(Oc2ccc(OCCNc3ncnc4nccnc34)cc2)n1 [Compound 168] | – | – | – | 0 to 49 | 0 to 49 | 0 to 49 | – |
| CCOc1cc(CCNc2ncnc3nccnc23)ccc1Oc1cc(C(C)(F)F)ccn1 [Compound 189] | – | – | – | 50 to 79 | 80 to 100 | 0 to 49 | – |
| CC(C)(C)[Si](C)(C)Oc1ccc(CCNc2ncnc3nccnc23)cc1 [Compound 133, {2-[4-(tert-Butyldimethylsilanyloxy)-phenyl]-ethyl}-pteridin-4-yl-amine] | – | – | – | 0 to 49 | 80 to 100 | – | 0 to 49 |
| CC(=O)Oc1cc(CCNc2ncnc3nccnc23)ccc1Oc1cc(C(C)(F)F)ccn1 [Compound 196] | – | – | – | 0 to 49 | 80 to 100 | 0 to 49 | – |
| Cc1cnc2ncnc(NCCc3ccc(O)cc3)c2n1 [Compound 38] | – | – | – | 0 to 49 | 0 to 49 | 0 to 49 | – |
| CC(Sc1ncnc2nccnc12)c1ccc(C#N)cc1 (stereo not drawn) [Compound 78] | – | – | – | 0 to 49 | 0 to 49 | 0 to 49 | – |
| CC(C)Oc1cc(CCNc2ncnc3nccnc23)ccc1Oc1cc(C(F)(F)F)ccn1 [Compound 180, {2-[3-(Isopropoxy)-4-(4-trifluoromethyl-pyridin-2-yloxy)-phenyl]-ethyl}-pteridin-4-ylamine] | – | – | – | 50 to 79 | 80 to 100 | 0 to 49 | – |
| N#Cc1ccnc(Oc2cccc(OCCNc3ncnc4nccnc34)c2)c1 [Compound 88] | – | – | – | 0 to 49 | 80 to 100 | 0 to 49 | – |
| Cc1nc2ncnc(NCCc3ccc(O)cc3)c2nc1C [Compound 161] | – | – | – | 0 to 49 | 0 to 49 | 0 to 49 | – |
| Oc1cccc(OCCNc2ncnc3nccnc23)c1 [Compound 81] | – | – | – | 0 to 49 | 80 to 100 | 0 to 49 | – |
| COc1cc(C)c(CCNc2ncnc3nccnc23)cc1C [Compound 151] | – | – | – | 0 to 49 | 80 to 100 | 0 to 49 | – |
| CCOC(=O)c1ccnc(Oc2ccc(CCNc3ncnc4nccnc34)cc2)c1 [Compound 183] | – | – | – | 0 to 49 | 80 to 100 | 0 to 49 | – |
| COc1cc(C(C)(F)F)cc(Oc2ccc(CCNc3ncnc4nccnc34)cc2)n1 [Compound 191, (2-{4-[4-(1,1-Difluoroethyl)-6-methoxypyridin-2-yloxy]-phenyl}-ethyl)-pteridin-4-yl-amine] | – | – | – | 50 to 79 | 80 to 100 | 0 to 49 | – |
| COc1ccc(CCNc2ncnc3nccnc23)cc1F [Compound 176] | – | – | – | 0 to 49 | 0 to 49 | 0 to 49 | – |
| FC(F)(F)c1cc(Oc2ccc(CCNc3ncnc4nccnc34)cc2)nc(C(F)(F)F)c1 [Compound 115] | – | – | – | 0 to 49 | 80 to 100 | 0 to 49 | – |
